# Laboratory results: patent publication US7776873B2, “Method for treating damage to gastric mucosa” (Yuhan Corporation, priority 2005, dated 2010)
# Tested on: indomethacin-induced gastric mucosal lesions
# Assay: Treatment effect on NSAID-induced gastropathy
# Assay type: in vivo, Sprague Dawley male rats
# Conditions: rats, 5 mg/kg and 10 mg/kg given 8 hours after indomethacin 40 mg/kg, for one hour, FIG. 9
# Experimental: Six-week old specific-pathogen-free (SPF) Sprague Dawley male rats (Charles River, Tokyo, Japan) were used for experiments. The rats were fed a sterilized commercial pellet diet (Biogenomics Co., Seoul, Korea), given sterile water ad libitum, and housed in air-conditioned biohazard room with a 12-h light:12-h dark cycle. The rats were food-deprived 24 hours, and then treated with 1 ml of a solution of indomethacin (40 mg/kg) in 0.5% CMC (carboxymethylcellulose) via oro-gastric tube. 8 hours after the indomethacin treatment, the rats were treated with 1 ml of a solution of revaprazan (5 mg/kg and 10 mg/kg) in 0.5% CMC for one hour, and the degree of gastropathy was determined in the same manner as in Example 8.
smiles,measurement,value
"Cc1nc(Nc2ccc(F)cc2)nc(N2CCc3ccccc3C2C)c1C (centres unmarked) [revaprazan, 5,6-dimethyl-2-(4-fluorophenylamino)-4-(1-methyl-1,2,3,4-tetrahydroisoquinolin-2-yl)pyrimidine]",gastric mucosal hemorrhagic lesions after treatment,remarkably improved
same,number of erosions and ulcers,reduced
